{
  "source": "patent US20220177476A1",
  "about": "“Crystal Forms of (S)-4-(8-amino-3-(1-(but-2-ynoyl)-pyrrolidin-2-yl)imidazo[1,5-a]pyrazin-1-yl)-n-(pyridin-2-yl)benzamide” (Acerta Pharma B.V., priority 2015, published 2022)",
  "type_in_all_cases": "physicochemical",
  "key": {"[1]": {"assay": "Aqueous solubility of salts after three hours equilibration without pH adjustment", "settings": "thermodynamic from solid, water", "procedure": "Characterization of fumarate salt, maleate salt, phosphate salt and L-tartrate salt was conducted using ^1H NMR spectroscopy, TG-FTIR, DSC, dynamic vapor sorption, optical microscopy, high-performance liquid chromatography (HPLC) purity, laser diffraction, approximate bulk and tapped density, and aqueous solubility analytical techniques."}, "[2]": {"assay": "Aqueous solubility of Formula (1) free base as a function of pH", "source_text": "The aqueous solubility of Formula (1) free base was examined as a function of pH."}, "[3]": {"assay": "pKa by ultraviolet (UV) spectrometric titration", "settings": "for pKa: aqueous solution", "procedure": "The pKa values for Formula (1) free base were determined and used to create the speciation plot shown in FIG. 47 to illustrate the species present as the Formula (1) passes through the gastrointestinal tract. The sample pKa values were determined using an ultraviolet (UV) spectrometric technique. The sample was initially titrated in a fast-UV triple titration between pH 2-12 at concentrations of 31-19 μM, under aqueous conditions. Three pKa values, with average values of ˜3.6, ˜5.8 and ˜12.0, were determined. The sample was subsequently titrated in six titrations, under aqueous conditions over a total range of pH 1.5-12.5 at concentrations of 30-18 μM."}, "[4]": {"assay": "logP by potentiometric (pH-metric) technique, octanol/water", "settings": "25° C., 0.15 M KCl", "procedure": "The logP of Formula (1) free base was determined using the potentiometric (pH-metric) technique. The sample was titrated in various ratios of octanol/water from pH 1.9-12.1 at concentrations of 1.1-0.5 mM at 25° C. in an ionic environment of 0.15 M KCl. The potentiometric data collected were used to calculate the logP of the neutral (2.03±0.01) and the cationic (−0.31±0.06) species."}, "[5]": {"assay": "Water content by Karl Fischer titration"}, "[6]": {"settings": "six titrations, pH 1.5-12.5, 30-18 μM, aqueous"}},
  "note": "Read-outs that look alike come from different tables or passages of the source.",
  "data": [
    {"molecule": "CC#CC(=O)N1CCC[C@H]1c1nc(-c2ccc(C(=O)Nc3ccccn3)cc2)c2c(N)nccn12", "note": "[Formula (1), (S)-4-(8-amino-3-(1-(but-2-ynoyl)pyrrolidin-2-yl)imidazo[1,5-α]pyrazin-1-yl)-N-(pyridin-2-yl)benzamide]", "values": [
      {"measurement": "solubility at 3 h", "setting": "[1]", "result": "< 1000", "unit": "µg/mL"},
      {"measurement": "solubility", "setting": "[2]; aqueous HCl solution, pH 1, simulated gastric fluid, thermodynamic from solid, HCl solution having a pH of about 1, read-out: solubility in HCl solution", "result": "≥ 150000", "unit": "µg/mL"},
      {"measurement": "solubility", "setting": "[2]; aqueous buffer solution, pH 5, aqueous buffer, thermodynamic from solid, effective pH at the end of the test 5.0, read-out: Solubility", "result": 690, "unit": "µg/mL"},
      {"measurement": "solubility", "setting": "[2]; aqueous buffer solution, pH 7.3, aqueous buffer, thermodynamic from solid, effective pH at the end of the test 7.3, read-out: Solubility", "result": 49, "unit": "µg/mL"},
      {"measurement": "solubility", "setting": "[2]; aqueous buffer solution, pH 8.9, aqueous buffer, thermodynamic from solid, effective pH at the end of the test 8.9, read-out: Solubility", "result": 51, "unit": "µg/mL"},
      {"measurement": "solubility", "setting": "[2]; aqueous buffer solutions, aqueous buffer, thermodynamic from solid, pH 6.7 and greater, read-out: aqueous solubility, constant level", "result": "~50", "unit": "µg/mL"},
      {"measurement": "solubility", "setting": "[2]; effective pH at the end of the test 6.7", "result": 56, "unit": "µg/mL"},
      {"measurement": "aqueous solubility, constant level", "setting": "[2]; pH 6.7 and greater", "result": "about 50 μg/mL"},
      {"measurement": "pKa", "setting": "[3]; free base, Table 9, read-out: pKa", "result": "~5.7"},
      {"measurement": "pKa", "setting": "[3]; pH 1.5, six titrations, pH 1.5-12.5, 30-18 μM, aqueous, read-out: pKa, average value (third)", "result": "12.12 ± 0.03"},
      {"measurement": "pKa", "setting": "[3]; pH 2, fast-UV triple titration, pH 2-12, 31-19 μM, aqueous, read-out: pKa, average value (first)", "result": "~3.6"},
      {"measurement": "pKa", "setting": "[3]; pH 2, fast-UV triple titration, pH 2-12, 31-19 μM, aqueous, read-out: pKa, average value (second)", "result": "~5.8"},
      {"measurement": "pKa", "setting": "[3]; pH 2, fast-UV triple titration, pH 2-12, 31-19 μM, aqueous, read-out: pKa, average value (third)", "result": "~12"},
      {"measurement": "pKa, average value (first)", "setting": "[3]; [6]", "result": "3.54±0.01"},
      {"measurement": "pKa, average value (second)", "setting": "[3]; [6]", "result": "5.77±0.01"},
      {"measurement": "logP of the neutral species", "setting": "[4]", "result": "2.03±0.01"},
      {"measurement": "logP", "setting": "[4]; read-out: logP of the cationic species", "result": "-0.31 ± 0.06"}
    ]},
    {"molecule": "CC#CC(=O)N1CCC[C@H]1c1nc(-c2ccc(C(=O)Nc3ccccn3)cc2)c2c(N)nccn12.O=S(=O)(O)O", "note": "[sulfate salt, (S)-4-(8-amino-3-(1-(but-2-ynoyl)pyrrolidin-2-yl)imidazo[1,5-α]pyrazin-1-yl)-N-(pyridin-2-yl)benzamide sulfate]", "values": [
      {"measurement": "water content (% found, experimental)", "setting": "[5]", "result": 10.6, "unit": "%"}
    ]}
  ]
}
